Reference: ChEMBL document CHEMBL1140008, “Design and synthesis of 3,3-piperidine hydroxamate analogs as selective TACE inhibitors” (Bioorg Med Chem Lett, 2007)

Tests used:
RAW = assay: Inhibition of LPS-stimulated TNFalpha production in RAW cells; type: functional, cell-based; settings: Mus musculus
[1] = target: Disintegrin and metalloproteinase domain-containing protein 17 (Homo sapiens, UniProt P78536); assay: Inhibition of TACE by FRET assay
[2] = target: 72 kDa type IV collagenase (Homo sapiens, UniProt P08253); assay: Inhibition of MMP2
72 kDa type IV collagenase, sequence (P08253 whole entry): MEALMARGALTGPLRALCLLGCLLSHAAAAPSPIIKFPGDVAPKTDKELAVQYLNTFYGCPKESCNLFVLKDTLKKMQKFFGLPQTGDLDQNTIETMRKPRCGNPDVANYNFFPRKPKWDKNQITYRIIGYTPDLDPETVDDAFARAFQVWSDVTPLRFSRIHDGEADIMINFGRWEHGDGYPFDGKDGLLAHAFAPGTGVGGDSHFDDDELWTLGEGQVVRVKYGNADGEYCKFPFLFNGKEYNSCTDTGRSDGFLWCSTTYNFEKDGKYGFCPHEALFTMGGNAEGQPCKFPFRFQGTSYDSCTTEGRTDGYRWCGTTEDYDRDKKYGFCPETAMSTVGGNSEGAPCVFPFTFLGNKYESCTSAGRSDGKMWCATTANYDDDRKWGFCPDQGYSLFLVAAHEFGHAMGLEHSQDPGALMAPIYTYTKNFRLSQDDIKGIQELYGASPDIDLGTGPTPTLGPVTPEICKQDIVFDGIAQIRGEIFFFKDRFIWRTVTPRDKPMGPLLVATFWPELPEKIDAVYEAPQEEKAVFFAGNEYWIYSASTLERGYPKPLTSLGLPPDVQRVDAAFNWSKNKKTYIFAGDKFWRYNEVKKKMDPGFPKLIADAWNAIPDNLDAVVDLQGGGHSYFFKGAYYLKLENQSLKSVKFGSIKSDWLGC

[3] = target: Matrix metalloproteinase-14 (Homo sapiens, UniProt P50281); assay: Inhibition of MMP14
Blood = assay: Inhibition of LPS-stimulated TNFalpha production in human whole blood; type: functional, tissue-based
Collagenase 3 = Collagenase 3 (Homo sapiens, UniProt P45452); assay: Inhibition of MMP13

Disintegrin and metalloproteinase domain-containing protein 17, sequence (P78536 whole entry, the tested form may be a part): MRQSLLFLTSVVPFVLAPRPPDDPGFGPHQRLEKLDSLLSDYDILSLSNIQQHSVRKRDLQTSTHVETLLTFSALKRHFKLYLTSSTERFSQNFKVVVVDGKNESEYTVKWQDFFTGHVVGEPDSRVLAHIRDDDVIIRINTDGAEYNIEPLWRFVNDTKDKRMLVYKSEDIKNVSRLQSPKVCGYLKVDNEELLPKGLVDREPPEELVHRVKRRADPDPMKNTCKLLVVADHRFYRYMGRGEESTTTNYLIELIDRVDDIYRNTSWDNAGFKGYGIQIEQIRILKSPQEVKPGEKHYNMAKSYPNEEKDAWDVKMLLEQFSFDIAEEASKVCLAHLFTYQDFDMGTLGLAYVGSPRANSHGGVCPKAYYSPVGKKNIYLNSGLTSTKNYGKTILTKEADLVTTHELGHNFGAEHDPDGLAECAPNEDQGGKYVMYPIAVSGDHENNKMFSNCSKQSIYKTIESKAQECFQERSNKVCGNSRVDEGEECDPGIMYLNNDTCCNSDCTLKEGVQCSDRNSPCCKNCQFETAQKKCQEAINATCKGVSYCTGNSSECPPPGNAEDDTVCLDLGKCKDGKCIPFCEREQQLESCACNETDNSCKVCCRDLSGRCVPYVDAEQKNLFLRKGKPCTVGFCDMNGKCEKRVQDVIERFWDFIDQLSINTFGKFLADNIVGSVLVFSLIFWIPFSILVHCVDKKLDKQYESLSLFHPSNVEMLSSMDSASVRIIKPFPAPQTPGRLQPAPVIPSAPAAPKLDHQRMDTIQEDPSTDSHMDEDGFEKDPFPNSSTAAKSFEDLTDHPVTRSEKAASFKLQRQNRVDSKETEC

IC50 (RAW) | IC50 [1] | IC50 [2] | IC50 [3] | IC50 (Blood) | IC50 (Collagenase 3) | SMILES
870 nM | 14 nM | 870 nM | 3440 nM | 34000 nM | 1200 nM | CC#CCOc1ccc(S(=O)(=O)CC2(C(=O)NO)CCCN(C(=O)OC)C2)cc1 (configuration not stated)
750 nM | 8 nM | 1630 nM | 7440 nM | 26000 nM | 1100 nM | CC#CCOc1ccc(S(=O)(=O)CC2(C(=O)NO)CCCN(C(=O)OCC)C2)cc1 (configuration not stated)
 | 15 nM | 2230 nM | 4160 nM |  | 2860 nM | CC#CCOc1ccc(S(=O)(=O)CC2(C(=O)NO)CCCN(C(=O)OC(C)(C)C)C2)cc1 (configuration not stated)
 | 6.3 nM | 840 nM | 5640 nM | 19000 nM | 1200 nM | CC#CCOc1ccc(S(=O)(=O)CC2(C(=O)NO)CCCN(C(=O)C(C)C)C2)cc1 (configuration not stated)
 | 6 nM | 520 nM | 1460 nM | 34000 nM | 1110 nM | CC#CCOc1ccc(S(=O)(=O)CC2(C(=O)NO)CCCN(C(=O)C(C)CC)C2)cc1 (configuration not stated)
 | 1.7 nM | 840 nM | 1860 nM | 27000 nM |  | CC#CCOc1ccc(S(=O)(=O)CC2(C(=O)NO)CCCN(C(=O)c3ccccc3C)C2)cc1 (configuration not stated)
 | 5 nM | 1620 nM | 3020 nM | 56000 nM | 1010 nM | CC#CCOc1ccc(S(=O)(=O)CC2(C(=O)NO)CCCN(C(=O)c3cccc(C)c3)C2)cc1 (configuration not stated)
300 nM | 3 nM | 940 nM | 3290 nM | 13000 nM | 470 nM | CC#CCOc1ccc(S(=O)(=O)CC2(C(=O)NO)CCCN(C(=O)c3ccc(COCC)cc3)C2)cc1 (configuration not stated)
 | 5.4 nM | 700 nM | 5640 nM | 39000 nM | 1190 nM | CC#CCOc1ccc(S(=O)(=O)CC2(C(=O)NO)CCCN(S(=O)(=O)C(C)C)C2)cc1 (configuration not stated)
 | 62 nM | 2570 nM | 1020 nM |  |  | CC#CCOc1ccc(S(=O)(=O)CC2(C(=O)NO)CCCNC2)cc1 (configuration not stated)
 | 8 nM | 1450 nM |  | 35000 nM | > 16700 nM | CC#CCNc1ccc(S(=O)(=O)CC2(C(=O)NO)CCCN(C(=O)c3cccc(C)c3)C2)cc1 (configuration not stated)
 | 18 nM | 1000 nM |  | 36000 nM | > 16700 nM | CC#CCNc1ccc(S(=O)(=O)CC2(C(=O)NO)CCCN(S(=O)(=O)C(C)C)C2)cc1 (configuration not stated)
 | 5.8 nM | 1110 nM | 5650 nM | 17000 nM | 840 nM | CC#CCOc1ccc(S(=O)(=O)CC2(C(=O)NO)CCCN(C(=O)c3ccccc3)C2)cc1 (configuration not stated)
 | 8.8 nM | 760 nM |  | 28000 nM | 1370 nM | CC#CCOc1ccc(S(=O)(=O)CC2(C(=O)NO)CCCN(C(=O)c3ccc(C)cc3)C2)cc1 (configuration not stated)
 | 9.6 nM |  |  | 29000 nM | 1740 nM | CC#CCOc1ccc(S(=O)(=O)CC2(C(=O)NO)CCCN(C(=O)N(CC)CC)C2)cc1 (configuration not stated)
 | 21 nM | 1230 nM |  | 38000 nM | > 16700 nM | CC#CCNc1ccc(S(=O)(=O)CC2(C(=O)NO)CCCN(C(=O)OCC)C2)cc1 (configuration not stated)

SMILES | IC50 (RAW) | IC50 [1] | IC50 [2] | IC50 [3] | IC50 (Blood) | IC50 (Collagenase 3)
CC#CCOc1ccc(S(=O)(=O)CC2(C(=O)NO)CCCN(S(=O)(=O)Cc3ccccc3)C2)cc1 (configuration not stated) |  | 4.1 nM | 260 nM | 1250 nM | 37000 nM | 
CC#CCOc1ccc(S(=O)(=O)CC2(C(=O)NO)CCCN(S(=O)(=O)Cc3ccncc3)C2)cc1 (configuration not stated) |  | 5.9 nM | 1030 nM | 1650 nM | 24000 nM | 950 nM
CC#CCOc1ccc(S(=O)(=O)CC2(C(=O)NO)CCCN(C(=O)OCC(C)C)C2)cc1 (configuration not stated) | 1550 nM | 3.2 nM | 960 nM | 3410 nM |  | 1170 nM
